Source: patent publication US5081232A, “Complexes of TC99m radiopharmaceuticals” (priority 1987, dated 1992)

Key:
[1] = Electrophoresis (behaviour of complex under electrophoretic conditions); type: physicochemical; conditions: Tc-99 and Tc-99m
Procedure: A 0.1 g Agarose/10 cm^3 50 mM Phosphate buffer pH 7.4 gel was run at an applied potential of 300 VV for approximately 35 mins, using bromophenol blue indicator (this indicator moves towards the […]). The resulting distribution of activity was determined using suitable equipment.

[2] = Animal biodistribution (in vivo, i.v. injection); conditions: rats; for Blood, % injected dose/organ: blood taken as 5.8% of body weight; for Muscle, % injected dose/organ: muscle taken as 43% of body weight
Procedure: 0.1 ml Tc^99m prep was injected i.v. into a lateral tail vein of 6 anaesthetised rats.
At 2 minutes and 60 minutes post injection, 3 rats were sacrificed by decapitation, bled from the neck and dissected. The following organs were removed at dissection: kidney, bladder(+urine), lung, liver, spleen, stomach, small intestine, large intestine, brain (weighed), heart (weighed), thyroid, and samples of blood (weighed) and muscle (weighed, the residual carcass and the tail (injection site). Subsequently samples were counted in an automatic twin crystal gamma counter.
Percentage biodistribution of injected material was calculated (after correction for background) for all organs using the formula: [formula]
Since only samples of muscle and blood were taken, the percentage in these tissues was calculated assuming blood and muscle to represent 5.8 and 43% of total animal weight respectively using the formula: [formula] where CF= 0.058 for blood

Brain, % injected dose/organ ([2]; 2 min p.i.): 0.10 % injected dose/organ | Heart, % injected dose/organ ([2]; 2 min p.i.): 0.56 % injected dose/organ | Heart/Blood Counts/Gram ratio ([2]; 2 min p.i.): 2.2 | Heart/Liver Counts/Gram ratio ([2]; 2 min p.i.): 2.30 | Heart/Lung Counts/Gram ratio ([2]; 2 min p.i.): 1.12 | Heart/Muscle Counts/Gram ratio ([2]; 2 min p.i.): 2.19 | Kidney + Urine, % injected dose/organ ([2]; 2 min p.i.): 1.61 % injected dose/organ | Liver + GI, % injected dose/organ ([2]; 2 min p.i.): 0.00 % injected dose/organ | Liver, % injected dose/organ ([2]; 2 min p.i.): 3.12 % injected dose/organ | Lung, % injected dose/organ ([2]; 2 min p.i.): 0.73 % injected dose/organ | Blood, % injected dose/organ ([2]; 2 min p.i.): 3.56 % injected dose/organ | Muscle, % injected dose/organ ([2]; 2 min p.i.): 27.9 % injected dose/organ | Brain, % injected dose/organ ([2]; 60 min p.i.): 0.05 % injected dose/organ | Heart, % injected dose/organ ([2]; 60 min p.i.): 0.23 % injected dose/organ | Heart/Blood Counts/Gram ratio ([2]; 60 min p.i.): 1.76 | Heart/Liver Counts/Gram ratio ([2]; 60 min p.i.): 0.39 | Heart/Lung Counts/Gram ratio ([2]; 60 min p.i.): 0.74 | Heart/Muscle Counts/Gram ratio ([2]; 60 min p.i.): 1.84 | Kidney + Urine, % injected dose/organ ([2]; 60 min p.i.): 13.55 % injected dose/organ | Liver + GI, % injected dose/organ ([2]; 60 min p.i.): 0.00 % injected dose/organ | Liver, % injected dose/organ ([2]; 60 min p.i.): 8.27 % injected dose/organ | Lung, % injected dose/organ ([2]; 60 min p.i.): 0.53 % injected dose/organ | Blood, % injected dose/organ ([2]; 60 min p.i.): 2.00 % injected dose/organ | Muscle, % injected dose/organ ([2]; 60 min p.i.): 14.37 % injected dose/organ
Structure (SMILES): CC(=O)C=C(C)[O][99Tc-]([Cl])([Cl])([Cl])[N]=O [[^99 Tc(NO)Cl3 (acac)]^-, trichloro(pentan-2,4-dionato) nitrosyltechnetium(II) anion]
Stability under electrophoretic conditions [1]: decomposed under electrophoretic conditions
